The record followed here is article PMC2075610 (Biochimica et Biophysica Acta. Molecular Basis of Disease, 2006).

Non-standard residues stand in square brackets, D forms with d. Residues, ends and D or L forms follow the SMILES beside them. *: point of attachment. Nle = CCCC[C@H](N)C(=O)O; For = O=C* A value given as a limit tells only on which side of the number the result lay.

The target of assay [1] is T1, R190/N192 FPR (Homo sapiens, UniProt P21462). Format: cell-based.
Assay [2] has as its target T2, R190/K192 FPR (Homo sapiens, UniProt P21462, N192K). Format: cell-based.
For assay [3], the target named is T2, R190/K192 FPR. Briefly: biochemical. Format: biochemical.
The target in assay [4] is T1, R190/N192 FPR. The assay is described as follows: biochemical. Format: binding.
The target in assay [5] is T2, R190/K192 FPR. Briefly: biochemical. Format: binding.
Assay [6] concerns the target T1, R190/N192 FPR. Briefly: biochemical. Format: biochemical.
The target in assay [7] is T3, W190/N192 FPR (Homo sapiens, UniProt P21462, R190W). Briefly: biochemical. Format: binding.
Assay [8] concerns the target T3, W190/N192 FPR. Format: cell-based.
In assay [9] the target is T2, R190/K192 FPR. Format: cell-based. The source holds these as a separate data set.
The target in assay [10] is T3, W190/N192 FPR. Format: cell-based. This is another data set of the same source.
In assay [11] the target is T3, W190/N192 FPR. The assay is described as follows: biochemical. Format: biochemical.
The target of assay [12] is T1, R190/N192 FPR. Format: cell-based. The source holds these as a separate data set.
Another assay deals with reverse 229E peptide. Briefly: flow.
A further assay addresses MMWLL. The assay is described as follows: flow.

T1 sequence (P21462 whole entry, looked up): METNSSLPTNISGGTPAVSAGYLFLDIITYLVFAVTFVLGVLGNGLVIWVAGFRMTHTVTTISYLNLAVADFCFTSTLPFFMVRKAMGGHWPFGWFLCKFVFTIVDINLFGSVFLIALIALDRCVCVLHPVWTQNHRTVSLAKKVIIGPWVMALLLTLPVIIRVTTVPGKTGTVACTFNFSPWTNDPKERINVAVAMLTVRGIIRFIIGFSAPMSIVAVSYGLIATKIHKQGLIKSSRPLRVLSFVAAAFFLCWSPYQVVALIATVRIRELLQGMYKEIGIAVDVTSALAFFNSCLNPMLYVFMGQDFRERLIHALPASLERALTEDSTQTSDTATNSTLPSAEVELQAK

`CC[C@H](C)[C@H](NC(=O)[C@H](Cc1ccc(O)cc1)NC(=O)[C@@H](NC(=O)[C@@H](N)CCC(=O)O)[C@@H](C)O)C(=O)N[C@@H](CCCCN)C(=O)N[C@@H](Cc1c[nH]c2ccccc12)C(=O)N1CCC[C@H]1C(=O)N[C@@H](Cc1c[nH]c2ccccc12)C(=O)N[C@@H](Cc1c[nH]c2ccccc12)C(=O)N[C@H](C(=O)N[C@@H](Cc1c[nH]c2ccccc12)C(=O)N[C@@H](CC(C)C)C(=O)O)C(C)C`: the “inhibition of arrestin translocation in response to formyl-Nle–Leu–Phe” value is given as 18 ± 4% against R190/N192 FPR [1], 20 ± 9% at R190/K192 FPR [2] and 77 ± 10% at W190/N192 FPR [10]. Further, the β-arrestin translocation entry on R190/N192 FPR [1], on R190/K192 FPR [2] and at W190/N192 FPR [10] was “did not cause translocation” each time. The EC50 was 1.6 ± 0.44 µM on R190/K192 FPR [3], 1.6 ± 0.4 µM on R190/N192 FPR [6] and 0.3 ± 0.12 µM on W190/N192 FPR [11]. Moreover, the “stimulation of GTPγS binding” value on R190/K192 FPR [3], at R190/N192 FPR [6] and on W190/N192 FPR [11] was “neither ETYIKWPWWVWL nor MYVKWPWYVWL had any effect” in each case. Further, the figures for the Ki at R190/N192 FPR [4], at R190/K192 FPR [5] and on W190/N192 FPR [7] (Ki (nM ± SEM) for binding of peptides to W190/N192 FPR) were 0.533 ± 0.03 µM, 0.37 ± 0.03 µM and 270 ± 10 nM, respectively. The results for the “inhibition of receptor downregulation in response to formyl-Nle–Leu–Phe” value against W190/N192 FPR [8], against R190/K192 FPR [9] and against R190/N192 FPR [12] were 64 ± 6%, 20 ± 2% and 16 ± 2%, respectively. In addition, the surface receptor downregulation result at W190/N192 FPR [8], on R190/K192 FPR [9] and at R190/N192 FPR [12] was “did not cause surface receptor downregulation” each time.

Consider `CCCC[C@H](NC=O)C(=O)N[C@@H](CC(C)C)C(=O)N[C@@H](Cc1ccccc1)C(=O)O` [Formyl-NleLeuPhe, Formyl-Nle–Leu–Phe, reference compound] (For-[Nle]-Leu-Phe-OH), for which the β-arrestin translocation entry at R190/N192 FPR [1], on R190/K192 FPR [2] and at W190/N192 FPR [10] was “caused β-arrestin translocation” each time. Also, the “stimulation of GTPγS binding” value at R190/K192 FPR [3], at R190/N192 FPR [6] and on W190/N192 FPR [11] was “stimulated GTPγS binding” each time. Moreover, the “fold higher affinity for R190/K192 than for W190/N192” value on R190/K192 FPR [5] is on record as about 3 fold. Further, on W190/N192 FPR [7], the “fold reduction of affinity on substitution of R190 with W190” value was 2.5 fold. The surface receptor downregulation at W190/N192 FPR [8] came out at 76 ± 3%; at R190/K192 FPR [9] it was 85 ± 0.4%; at R190/N192 FPR [12] it was 76 ± 1.2%.

B1: Formyl peptide receptor (FPR W190/N192), P21462 (protein)
chain: METNSSLPTNISGGTPAVSAGYLFLDIITYLVFAVTFVLGVLGNGLVIWVAGFRMTHTVTTISYLNLAVADFCFTSTLPFFMVRKAMGGHWPFGWFLCKFVFTIVDINLFGSVFLIALIALDRCVCVLHPVWTQNHRTVSLAKKVIIGPWVMALLLTLPVIIRVTTVPGKTGTVACTFNFSPWTNDPKEWINVAVAMLTVRGIIRFIIGFSAPMSIVAVSYGLIATKIHKQGLIKSSRPLRVLSFVAAAFFLCWSPYQVVALIATVRIRELLQGMYKEIGIAVDVTSALAFFNSCLNPMLYVFMGQDFRERLIHALPASLERALTEDSTQTSDTATNSTLPSAEVELQAK
For B1, the results for the Ki with reverse 229E peptide and in the assay with MMWLL were over 50 µM and 0.84 µM, respectively.

The EC50 is the concentration giving half of the maximal effect. Low values mean greater potency, high ones weaker potency. Usually Ki stands for a measure of affinity in units of concentration, obtained from inhibition or displacement. Low readings indicate higher affinity, high ones lower affinity.
